In patent US4245100A, “Sydnonimine N-acyl derivatives and method for preparing same” (Vsesojuzny nauchno-issledovatelsky khimikofarmatsevtichesky …, priority 1977, dated 1981):

Tests used:
central nervous system [1] = assay: Locomotory activity of mice (registered with instrument "Animex"); type: in vivo, white male mice; conditions: for ED200: Mus musculus, dose causing two-fold potentiation of locomotory activity, read-out: ED200 (locomotion)
Procedure: (§1) Psychostimulating activity of the compounds according to the present invention has been tested in experiments with mice and rats.
(§2) The experiments are performed with white male mice with a weight of 18-20 g and with white rat males with a weight of 120 to 140 g with the account of parameters characterising the influence of the compounds according to the present invention on the central nervous system as well as toxicity. Following this objective, there have been studied:
(1) effect of the compounds on the locomotory activity of the animals (locomotory activity is registered using the instrument "Animex");
(§3) To quantitatively evaluate the central stimulant activity of the compounds in the tests on mice the values of ED200 (locomotion) are determined, i.e. doses in which the compounds cause a two-fold potentiation of locomotory activity of the animals; in the tests performed with rats there are determined values of ED50 (stereotypy), i.e. doses in which the compounds, one hour after their administration, cause, in 50% of the test rats, stereotypic behavior reactions (ED50 doses are calculated by the Litchfield and Wilkoxsons method).
(§4) The compounds according to the present invention are sparingly soluble in water. They were administered to the animals in the form of a suspension prepared with the use of a 1% solution of carboxymethylcellulose with the addition of Tween-80® as an emulsifying agent. Since molecular weights of the test compounds differ from each other, their doses are calculated in mcM/kg.
(§5) In a special series of experiments there has been made a quantitative comparison of the central stimulant effect of the compounds according to the present invention as determined by tests of locomotory activity with mice and stereotypy with rats.

central nervous system [2] = assay: Stereotypic behavior reactions in rats; type: in vivo, white rat males; conditions: Rattus norvegicus, 1 h, dose causing stereotypic behavior reactions in 50% of rats one hour after administration, Litchfield and Wilkoxson method, read-out: ED50 (stereotypy)
Procedure: as §1, §2
(2) capability of the compounds of inducing sterotypic behavior reactions;
as §3, §4, §5

central nervous system [3] = conditions: prior art compound; cited from earlier work
mice = conditions: statement on known psychostimulant compounds; cited from earlier work
Solubility = type: physicochemical

CC(Cc1ccccc1)[n+]1cc([N-]C(=O)Nc2ccccc2)on1 (racemic) [dl-N-phenylcarbamoyl-3-(α-methyl-β-phenylethyl) sydnonimine, reference compound]
ED200 (central nervous system [1]): 72.6 µmol/kg
ED50 (central nervous system [2]): 107 µmol/kg
psychostimulant activity (known compound) (central nervous system [3]): possesses a psychostimulant activity

CC(Cc1ccccc1)[n+]1cc([N-]C(=O)Nc2ccc(Cl)cc2)on1 (racemic) [Example 4, dl-N-para-chlorophenyl carbamoyl-3-(α-methyl-β-phenylethyl) sydnonimine]
ED200 (central nervous system [1]): 18.2 µmol/kg
ED50 (central nervous system [2]): 20 µmol/kg

C[C@H](N)Cc1ccccc1 [dextramphetamine]
phenomenon of "group toxicity" (known psychostimulant compounds) (mice): characteristic

Cc1cccc(NC(=O)[N-]c2c[n+](C(C)Cc3ccccc3)no2)c1 (racemic) [X is NH--C6 H4 --CH3 --meta]
ED200 (central nervous system [1]): 32.3 µmol/kg
ED50 (central nervous system [2]): 39.9 µmol/kg

C[C@H](Cc1ccccc1)[n+]1cc([N-]C(=O)Nc2ccccc2)on1 [Example 3, l-3-(α-methyl-β-phenylethyl)-N-phenylcarbamoylsydnonimine]
duration for which maximum locomotory activity is maintained (central nervous system [1]; dose of 40 mcM/kg): 1 to 1.5 h
solubility in acetone (Solubility; acetone): soluble
solubility in chloroform (Solubility; chloroform): soluble
solubility in fats (Solubility; fats): soluble
solubility in water (Solubility; water): substantially insoluble in water

CC(N)Cc1ccccc1 (centres unmarked) [amphetamine]
phenomenon of "group toxicity" (known psychostimulant compounds) (mice): characteristic
